# Like-named read-outs stand apart in the source and are kept apart here.
# Assays:
# [1] = test system: pGL3(4×48) Sox9 reporter; assay: Sox9 reporter (pGL3(4×48)) luciferase assay in transiently transfected primary limb mesenchymal cultures; type: cell-based, mouse; settings: for effect on the antagonist-induced increase in Sox9 reporter activity (in words): co-treatment with AGN194301 or AGN194310
# Excerpt: The Sox9 responsive reporter (herein referred to as the Sox9 reporter) was generated by subcloning a fragment containing a reiterated (4×48) Sox9 binding sequence coupled to the mouse Col2a1 minimal promoter (−89 to +6) into pGL3. The fragment containing the 4×48 repeat and minimal promoter was isolated as a BamH I/Hind III fragment from the original 4×48-p89Luc reporter plasmid previously described (Lefebvre et al., 1997), and was subcloned into the BgI II and Hind III sites of pGL3-basic (Promega) to generate pGL3(4×48). The reporter pW1-Col2-Luc was generated from the original p309i(182×2)βgeoCol2a1 (Zhou et al., 1995) by subcloning the regulatory region (consisting of a 309-bp promoter region and two tandem repeats of a 182-bp intron-1 fragment) into pW1 (Balkan et al., 1992) as an EcoR I/BamH I fragment. A BgI II fragment containing the luciferase gene isolated from pJD205 (de Wet et al., 1987) was subcloned into the BamH I site of pW1-Col2 to generate pW1-Col2-Luc. The pcDNA3-hSox9 expression vector was as described (Lefebvre et al., 1997). To generate a mutated form of hSox9, hSox9 was subcloned into pKSII (Stratagene) and serine 181 was replaced with alanine, using the Quick-Change XL system (Stratagene) with the following overlapping primers: 5′-[…]-3′, and 5′-[…]-3′. Following mutagenesis, the Sox9 mutant and wt Sox9 were subcloned into pcDNA3, and the serine-alanine conversion was confirmed by sequencing.
# (§1) Limb mesenchymal cells were harvested from embryonic age 11.25-11.75 mouse embryos as previously described (Weston et al., 2000). The cells were resuspended at a density of about 2.5×10^7 cells/ml prior to transfections, otherwise they were resuspended at 1.5×10^7 cells/ml. For transfection purposes, cells were mixed with a DNA/FuGene6 mixture in a 2:1 ratio. FuGene6-DNA mixtures were prepared according to the manufacturer's instructions (Roche Biomolecular). Briefly, 1 μg of reporter, 1 μg of expression vector and 0.05 μg of pRLSV40 (Promega) were mixed for a total of about 2 μg DNA in 100 μL of media and FuGene6. Fifty microlitres of the DNA mixture was transferred into a sterile 1.5 ml eppendorf tube, followed by 100 μl of cells. Cells were gently triturated and 10 μl was used to seed each single well of a 24-well culture dish. After 1.5 hrs in a humidified CO2 incubator, 1 ml of media containing compounds of interest was added to each well and was subsequently replaced 24 hours following transfection. All-trans RA (at-RA; Sigma), AGN193836 (Teng et al., 1996), AGN194301 (Teng et al., 1997) and AGN194310 (Johnson et al., 1999)(Allergan Inc.) were dissolved in 95% ethanol. SB202190 and SB203580 (Calbiochem) and H89 (Sigma) were dissolved in dimethyl sulfoxide (DMSO) (BDH). 8-(4-chlorophenylthio)-cAMP (pCPT-cAMP, Sigma) was dissolved in water just prior to use.
# (§2) Analysis of reporter gene activity using the Dual Luciferase Assay System was done following the manufacturer's instructions (Promega). Briefly, approximately 48 hours following the transfections, cells were washed once with PBS and lysed in 100 μl of Passive Lysis Buffer for 20 minutes. Firefly and renilla luciferase activities were determined using 40 μl of lysate in a 96-well plate-reading luminometer (Molecular Devices). Alcian blue staining of cultures was carried out as described previously (Cash et al., 1997).
# [2] = test system: primary limb mesenchymal cultures; assay: Cartilage nodule formation in primary limb mesenchymal cultures (alcian blue staining); type: cell-based, mouse
# Protocol: as §1, §2
# [3] = test system: RA response element (pW1-βRARE3-Luc); assay: Retinoic acid responsive reporter (pW1-βRARE3-Luc) luciferase assay in primary limb mesenchymal cells; type: cell-based, mouse; settings: for effect on RARE reporter activity (in words): concentration series
# Protocol: as §1, §2
# [4] = test system: Sox9 mRNA; assay: Northern blot of Sox9 mRNA in limb mesenchymal cultures; type: cell-based, mouse; settings: 1 μM, 2-day cultures
# Protocol: Northern blots were carried out using total RNA from limb mesenchymal cultures, as previously described (Weston et al., 2000). Briefly, total RNA was extracted from cells cultured for 2, 4, 6 or 8 days. Cells were treated with media alone or with AGN 194301. Synthesis of the Col2a1 cDNA fragment used was as described previously (Weston et al., 2000). The Sox9 cDNA probe was made using an EST clone, GenBank accession number Al594348 (Research Genetics). The Sox9 fragment was released from pT7T3 using Eco RI and Not I.
# [5] = test system: primary limb mesenchymal cultures; settings: earlier work, Weston et al., 2000; cited from earlier work
# [6] = test system: IL-2 gene expression; settings: Koyama et al., 2000; read-out: IC50 for inhibition of IL-2 gene expression; cited from earlier work
# [7] = day 4 alcian blue-stained cultures
# [8] = 10 μM, versus untreated control cultures
compound,measurement,setting,value
"Nc1ncnc2c1nc(Sc1ccc(Cl)cc1)n2[C@@H]1O[C@@H]2COP(=O)(O)O[C@H]2[C@H]1O [pCPT-cAMP, 8-(4-chlorophenylthio)-cAMP]",increase in Sox9 reporter activity,"[1]; 500 μM, absence of exogenous Sox9",about 4.5 fold
same,further increase in Sox9 reporter activity,[1]; co-transfection with wt Sox9 or Sox9-181A,< 1.5 fold
"CC1=C(/C=C/C(C)=C/C=C/C(C)=C/C(=O)O)C(C)(C)CCC1 [at-RA, All-trans RA]",cartilage nodule formation (in words),[2]; [7],more potent inhibitor of cartilage nodule formation than 836
same,Sox9 reporter activity reduced to (% of control),[1]; at 5 nM,53%
same,effect on Sox9 reporter activity (in words),[1]; concentration series,attenuated reporter activity
same,effect on RARE reporter activity (in words),[3],activated the RARβ reporter to a greater extent than about 836
O=S(=O)(NCCNC/C=C/c1ccc(Br)cc1)c1cccc2cnccc12 [H89],cartilage nodule formation (in words),[2]; [8],fewer nodules are detected compared to untreated cultures
same,effect on Sox9 reporter activity (in words),"[1]; 10 μM, absence of exogenous Sox9",repressed reporter activity
same,effect on the antagonist-induced increase in Sox9 reporter activity (in words),[1],reduced Sox9 reporter activity both in the presence or absence of AGN194301 or dnRARα
same,effect on Sox9 reporter activity (in words),[1]; presence of co-transfected Sox9,slightly decreased reporter activity
"Cc1ccc(C2=CC(C)(C)Oc3c(Br)cc(C(=O)Nc4ccc(C(=O)O)c(F)c4)cc32)cc1 [AGN194301, 2-Fluoro-4-[(1-(8-bromo-2,2-dimethyl-4-(4-methylphenyl)-2-H-chromen-6-yl)-methanoyl)-amino]-benzoic acid]",Sox9 mRNA expression (in words),[4],noticeable increase in Sox9 mRNA
same,concentrations giving significant differences in Sox9 reporter activity (Bonferroni post-tests),"[1]; FIG. 1A, P at least <0.05",≥ 100 nM
same,greatest induction of Sox9 reporter activity,"[1]; at 1 μM, primary limb mesenchymal cells",about 280%
same,effect on Sox9 reporter activity (in words),[1]; concentration series,concentration-dependent increase in reporter activity
same,cartilage nodule formation (in words),[5],substantial increase in the number of cartilage nodules
same,concentrations inducing significant changes in activity of the RARE reporter (Bonferroni post-tests),"[3]; FIG. 1B, P at least <0.05",≥ 100 nM
Oc1ccc(-c2nc(-c3ccncc3)c(-c3ccc(F)cc3)[nH]2)cc1 [SB202190],cartilage nodule formation (in words),[2]; [8],almost no cartilage nodules form
same,effect on Sox9 reporter activity (in words),[1]; 5 or 10 μM,decrease in Sox9 reporter activity compared to untreated controls
same,effect on the antagonist-induced increase in Sox9 reporter activity (in words),[1],attenuated the chondrogenic response to AGN194301
"CC(/C=C/C(=O)NO)=C\[C@@H](C)C(=O)c1ccc(N(C)C)cc1 [TSA, Trichostatin A]",cartilage nodule formation (in words),[2]; [7],decrease in the number of cartilage nodules
same,IC50,[6],73 nM
same,effect on the antagonist-induced increase in Sox9 reporter activity (in words),[1],attenuated the 310-induced increase
same,effect on Sox9 reporter activity (in words),[1]; concentration series,dose-dependent decrease in Sox9 reporter activity
same,effect on RARE reporter activity (in words),[3],enhanced activity of the pW1-αRARE3tkLuc reporter in a concentration-dependent manner
CCc1ccc(C2=CC(C)(C)Sc3ccc(C#Cc4ccc(C(=O)O)cc4)cc32)cc1 [AGN194310],concentration at which increase in nodule formation can be observed,"[2]; treatment for 4 days, alcian blue",10 nM
same,maximal induction of Sox9 reporter activity,"[1]; at 50 nM, primary limb mesenchymal cells",~530%
same,concentration inducing Sox9 reporter activity greater than the maximal response elicited by 301,[1]; concentrations as low as,≥ 10 nM
same,effect on RARE reporter activity (in words),[3],attenuated by 310 more effectively than by 301

# Source: US20050009868A1, “Retinoid receptor pan-antagonists for stimulating chondrogenesis” (priority 2001, published 2005)
